Results on 16 molecules are retold here after patent US9828389B2, “Tetrazolinone compounds and their use as pesticides” (SUMITOMO CHEMICAL COMPANY, LIMITED, priority 2012, dated 2017).

Broadly, the pest or weed control is the degree to which the test organism was suppressed or injured, in per cent. A lower pest or weed control goes with weak suppression.

Assay [1] relates to cotton aphid (Aphis gossypii). In words: Cotton aphid control test, spray on infested cucumber. The format is in vivo. The settings on record: 144 h, 20 mL sprayed on cucumber with 30 aphids, counted after 6 days. On the procedure:
Cucumber (cv; Sagami-hanjiro-fushinari) was grown in a polyethylene cup until the first true leaf was developed. Thirty (30) heads of cotton aphid (Aphis gossypii) (including the adults and the larvae) was released onto the leaves of the […] and next day, the above-mentioned testing drug dilutions 20 mL were sprayed. […] Control value (%)={1−(Cb×Tai)/(Cai×Tb)}×100 wherein the symbols in the formula represent the following descriptions. Cb: Number of the insects before treatment in untreated area; Cai: Number of the insects at the time of the observation in untreated area; Tb: Number of the insects before treatment in treated area; Tai: Number of the insects at the time of the observation in treated area;

Assay [2] has as its system wheat rust fungi (Puccinia recondita). In words: Wheat rust control test, foliar spray on wheat. The settings on record: Comparative Test Example: wheat (cv; Shirogane), foliar spray 500 ppm, inoculated after 5 days, observed after 1+8 days. The format is in vivo. The protocol:
The spores of wheat rust fungi (Puccinia recondita) were sprinkling-inoculated. After inoculation, the plants were placed under a dark and humid condition at 23° C. for 1 day and were then cultivated at 20° C. under lighting for 8 days and a lesion area was observed.

Turning to `Cc1cc(C)n(-c2ccc(OCc3c(Cl)cccc3-n3nnn(C)c3=O)cc2Cl)n1` [Present compound 11, 1-{3-chloro-2-[3-chloro-4-(3,5-dimethyl-pyrazol-1-yl)-phenoxymethyl]-phenyl}-4-methyl-1,4-dihydrotetrazole-5-one], the pest or weed control at 500 ppm in assay [1] was ≥ 90%.

Regarding `COc1cccc(-n2nnn(C)c2=O)c1COc1ccc(-c2ccn(S(C)(=O)=O)n2)cc1C` [Present compound 112, 1-{3-methoxy-2-[2-methyl-4-(1-methanesulfonyl-1H-pyrazol-3-yl)-phenoxymethyl]-phenyl}-4-methyl-1,4-dihydrotetrazole-5-one], the pest or weed control at 500 ppm in assay [1] was ≥ 90%.

On to `Cc1cc(C)n(-c2ccc(OCc3ccccc3-n3nnn(C)c3=O)c(Cl)c2)n1` [control compound, 1-{2-{2-chloro-4-(3,5-dimethyl-pyrazole-1-yl)-phenoxymethyl}-phenyl}-4-methyl-1,4-dihydrotetrazole-5-one], for which, in assay [2], the “lesion area compared to the lesion area in untreated plants” value is given as ≥ 70%.

For the molecule `Cc1ccn(-c2ccc(OCc3c(C)cccc3-n3nnn(C)c3=O)c(C)c2)n1` [Present compound 22, 1-{3-methyl-2-[2-methyl-4-(3-methyl-pyrazol-1-yl)-phenoxymethyl]-phenyl}-4-methyl-1,4-dihydrotetrazole-5-one], in assay [1], the pest or weed control at 500 ppm is ≥ 90%.

For `CCn1ccc(-c2ccc(OCc3c(OC)cccc3-n3nnn(C)c3=O)c(C)c2)n1` [Present compound 87, 1-{3-methoxy-2-[2-methyl-4-(1-ethyl-1H-pyrazol-3-yl)-phenoxymethyl]-phenyl}-4-methyl-1,4-dihydrotetrazole-5-one], the pest or weed control at 500 ppm in assay [1] was ≥ 90%.

With `CCc1cccc(-n2nnn(C)c2=O)c1COc1ccc(-c2cc(C)n(C)n2)cc1C` [Present compound 59, 1-{3-ethyl-2-[2-methyl-4-(1,5-dimethyl-1H-pyrazol-3-yl)-phenoxymethyl]-phenyl}-4-methyl-1,4-dihydrotetrazole-5-one], the pest or weed control at 500 ppm in assay [1] is ≥ 90%.

Consider `Cc1cc(-c2nn(C)c(Cl)c2C)ccc1OCc1c(-n2nnn(C)c2=O)cccc1C(F)(F)F` [Present compound 209, 1-{2-[2-methyl-4-(5-chloro-1,4-dimethyl-1H-pyrazol-3-yl)-phenoxymethyl]-3-trifluoromethyl-phenyl}-4-methyl-, 4-dihydrotetrazole-5-one], for which the pest or weed control at 500 ppm in assay [1] was ≥ 90%.

As for `CCc1cccc(-n2nnn(C)c2=O)c1COc1ccc(-n2nc(C)cc2C)cc1C` [Present compound 50, 1-{3-ethyl-2-[2-methyl-4-(3,5-dimethyl-pyrazol-1-yl)-phenoxymethyl]-phenyl}-4-methyl-1,4-dihydrotetrazole-5-one], the pest or weed control at 500 ppm in assay [1] is ≥ 90%.

For the molecule `Cc1cc(C)n(-c2ccc(OCc3c(Cl)cccc3-n3nnn(C)c3=O)c(Cl)c2)n1` [Present compound 9, 1-{3-chloro-2-[2-chloro-4-(3,5-dimethyl-pyrazol-1-yl)-phenoxymethyl]-phenyl}-4-methyl-1,4-dihydrotetrazole-5-one], the pest or weed control at 500 ppm in assay [1] is ≥ 90%.

In the case of `CCOc1cccc(-n2nnn(C)c2=O)c1COc1ccc(-n2cc(C)c(C)n2)cc1C` [Present compound 129, 1-{3-ethoxy-2-[2-methyl-4-(3,4-dimethyl-pyrazol-1-yl)-phenoxymethyl]-phenyl}-4-methyl-1,4-dihydrotetrazole-5-one], the pest or weed control at 500 ppm in assay [1] is ≥ 90%.

For the molecule `COc1cccc(-n2nnn(C)c2=O)c1COc1ccc(-c2nn(C)cc2C)cc1Cl` [Present compound 154, 1-{3-methoxy-2-[2-chloro-4-(1,4-dimethyl-1H-pyrazol-3-yl)-phenoxymethyl]-phenyl}-4-methyl-1,4-dihydrotetrazole-5-one], the pest or weed control at 500 ppm in assay [1] was ≥ 90%.

Turning to `CCc1cccc(-n2nnn(C)c2=O)c1COc1ccc(-n2cc(C)c(C)n2)cc1C` [Present compound 53, 1-{3-ethyl-2-[2-methyl-4-(3,4-dimethyl-pyrazol-1-yl)-phenoxymethyl]-phenyl}-4-methyl-1,4-dihydrotetrazole-5-one], the pest or weed control at 500 ppm in assay [1] is ≥ 90%.

Turning to `COc1cccc(-n2nnn(C)c2=O)c1COc1ccc(-c2cnn(CC(C)C)c2)cc1C` [Present compound 77, 1-{3-methoxy-2-[2-methyl-4-(1-isobutyl-1H-pyrazole-4-yl)-phenoxymethyl]-phenyl}-4-methyl-1,4-dihydrotetrazole-5-one], in assay [1], the pest or weed control at 500 ppm is ≥ 90%.

Take `CCc1cccc(-n2nnn(C)c2=O)c1COc1ccc(-c2nn(C)c(Cl)c2C)cc1C` [Present compound 206, 1-{3-ethyl-2-[2-methyl-4-(5-chloro-1,4-dimethyl-1H-pyrazol-3-yl)-phenoxymethyl]-phenyl}-4-methyl-1,4-dihydrotetrazole-5-one]: in assay [1], the pest or weed control at 500 ppm was ≥ 90%.

For `CCOc1cccc(-n2nnn(C)c2=O)c1COc1ccc(-c2nn(C)c(Cl)c2C)cc1C` [Present compound 210, 1-{3-ethoxy-2-[2-methyl-4-(5-chloro-1,4-dimethyl-1H-pyrazol-3-yl)-phenoxymethyl]-phenyl}-4-methyl-1,4-dihydrotetrazole-5-one], the pest or weed control at 500 ppm in assay [1] is ≥ 90%.

For the molecule `COc1cccc(-n2nnn(C)c2=O)c1COc1ccc(-c2cnn(C)c2)cc1C` [Present compound 68, 1-{3-methoxy-2-[2-methyl-4-(1-methyl-1H-pyrazole-4-yl)-phenoxymethyl]-phenyl}-4-methyl-1,4-dihydrotetrazole-5-one], in assay [1], the pest or weed control at 500 ppm was ≥ 90%.
